In US20240335408A1, “Soluble Guanylate Cyclase Activators for Cancer and Fibrosis Treatment” (University of Pittsburgh - of the Commonwealth System of …, priority 2023, published 2024):

Columns and labels:
[1] = tested on: luciferase (luc) expressing TRAMP-C1 cells; experiment: TRAMP-C1 cell survival after single dose irradiation (bioluminescence, 96-well); format: cell-based, mouse; conditions: for survival (% of bioluminescence before irradiation): single 8 Gy dose, drugs from 4 days after irradiation for 7 days, cinaciguat, p62 inducer, enzalutamide 1 μM, 8-bromo-cGMP 100 μM, DETA-NONOate 100 M (so in the source); for effect on irradiation-induced cell death: single dose 8 Gy irradiation, TRAMP-C1 cells, preliminary studies
Description: FIG. 4. The effect of single-dose and fractionated irradiation on TRAMP-C1 cell survival. A) Cells were plated at 5,000 cells/well in 96-well plates and subjected to single dose irradiation of 0 or 8 Gy. Four days following irradiation cells were treated with cinaciguat (1 μM), p62 inducer (1 μM), enzalutamide (1 μM), DETA-NONOate ([…]), 8-bromo-cGMP (100 μM) or vehicle (0.1% DMSO) for 1 week. Bioluminescence was measured before and after irradiation, and following drug treatment. […] B) Determination of 6 Gy as the optimal 5-day fractionated radiation dose based on cell survival.
Effect of drugs targeting NO·-cGMP pathway, mitophagy and AR signaling on TRAMP-C1 survival after single dose irradiation and determination of optimal fractionated irradiation protocol. To assess whether promoting NO·-cGMP signaling, induction of mitophagy or AR inhibition would enhance the effect of radiation treatment, the effect of these different drugs on cultured luciferase (luc) expressing TRAMP-C1 cells was examined in a 96-well plate format. Bioluminescence was assessed before irradiation after which the cells were exposed to a single 8 Gy radiation dose. Four days after irradiation cells were treated with the different drugs for a further 7 days. […] To determine the optimal fractionated irradiation dosing protocol, fractionated irradiation protocols were examined in cultured cells over a 5-day period. […] Therefore, 6 Gy per day for 5 days can be used as a dosing protocol.
Cell culture. Luciferase expressing TRAMP-C1 cells may be maintained in DMEM supplemented with 10% FBS, 1% PenStrep, 5 μg/ml insulin and 10 nM dehydroisoandrosterone and used at 10-15 passages. For experiments in Examples 1-3 cells may be plated at 5,000 cells/well in 96-well plates.
Bioluminescence in vitro and in vivo imaging. Cells may be treated with 150 μM luciferin D and immediately placed in Tecan SPECTRA Fluor Plus plate reader for bioluminescence measurement. Readings may be averaged for each group of cells (n≥ 8) and background (empty well readings) subtracted. Mice may be anesthetized with avertin (300 mg/kg, IP), depilated and injected with 150 mg/kg luciferin D, IP. They may be […] in a BioRad ChemiDoc MP imaging system in the supine position. Bioluminescence may be imaged for 600 sec using the Chemi Hi sensitivity protocol, intensity expressed colorimetrically, superimposed over images of the mice.

[2] = tested on: sGCα1, Bcl-2/BAX and NF-κβ; experiment: Immunolocalization of sGCα1, Bcl-2/BAX and NF-κβ in orthotopic TRAMP-C1 tumor sections; format: in vivo, mouse; conditions: fractionated irradiation plus 1 mg/kg/day for two weeks
Description: FIGS. 7A and 7B. Alterations in the sGCα1, Bcl-2/BAX ratio and NF-κβ nuclear localization in prostate tumors from non-irradiated mice, and irradiated mice treated with cinaciguat or p62 inducer based on immunolabeling intensity. A)-C) sGC α1 immunolabeling in A) non-irradiated orthotopic TRAMP-C1 tumors. B) orthotopic tumor from mouse receiving fractionated irradiation followed by two weeks of cinaciguat (1 mg/kg/day) treatment. C) orthotopic tumor from mouse receiving fractionated irradiation followed by two weeks of p62 mitophagy inducer (1 mg/kg/day) treatment. D)-F) Immunolabeling for Bcl-2 of D) non-irradiated orthotopic TRAMP-C1 tumor. E) orthotopic tumor from mouse receiving fractionated irradiation and cinaciguat treatment. F) orthotopic tumor from mouse receiving fractionated irradiation and p62 mitophagy inducer treatment. G-I) Immunolabeling for NF-κβ of G) non-irradiated orthotopic TRAMP-C1 tumor. H) orthotopic tumor from mouse receiving fractionated irradiation and cinaciguat treatment. I) orthotopic tumor of mouse receiving fractionated irradiation and p62 mitophagy inducer treatment. J) Bar chart for ratio of sGCα1 positive area to total cell area. K) Bar chart of Bcl-2 positive staining versus BAX positive staining in sequential sections from each group. […] Green fluorescence—immunolabeling, Blue—DAPI, nuclei. […]

[3] = tested on: mouse bladder with chronic radiation cystitis; experiment: Chronic radiation cystitis in mice: cystometry (CMG) and bladder collagen staining; format: in vivo
Excerpt: FIG. 12 Effects of cinaciguat on a mouse bladder with chronic radiation cystitis. A) Cystometry (CMG), non-irradiated mouse. B) CMG, 9 weeks following bladder irradiation (10 Gy). C) CMG, irradiation+daily gavage for 2 weeks with cinaciguat. D) Active and (E-F) passive length-tensions from irradiated+vehicle (red) vs. irradiated+cinaciguat (blue) bladder strips. G-I) Bladder cross-sections stained with Verhoeff Van Gieson solution; collagen is stained pink. J) Collagen, % area of the bladder wall, N=4. K) bladder weight in mg, control vs. irradiated (irr)>9 wks; N=5 ea.
Furthermore, irradiation decreases bladder weight by approximately 30% that could be attributed to muscle atrophy (FIG. 12 (K)).

[4] = given via i.v. drip; cited from earlier work
[5] = Blood pressure and heart rate under cinaciguat treatment; format: in vivo, mice
[6] = tested on: Bcl-2/BAX ratio; conditions: aged mice, reversal of benign prostatic hyperplasia; previously demonstrated; cited from earlier work
[7] = tested on: bladder of CyB5R3 smooth muscle conditional knockout mice; conditions: acute intraperitoneal injection; cited from earlier work
[8] = tested on: orthotopic TRAMP-C1 tumors; experiment: Orthotopic TRAMP-C1 tumors after fractionated irradiation, prostate tissue weight; format: in vivo, C57BI/6 mice; conditions: 2 Gy fractions x 5 days; after one week osmotic pump 1 mg/kg/day for 14 days; vs irradiation alone
Description: FIG. 5. TRAMP-C1 orthotopic tumors and the effects of irradiation. A) TRAMP-C1 cells (10^7 cells/100 μl) were injected bilaterally into the ventrolateral prostatic lobes to create the orthotopic tumor mouse model. […] B) TRAMP-C1 tumor in a non-irradiated mouse 5 weeks after cell injection. C) Tumor following fractionated irradiation (2 Gy×5 days, starting 4 weeks post injection). D) Prostate wet weight in control, non-irradiated and irradiated tumor bearing animals.
FIG. 6. Bioluminescence imaging of prostate tumors and prostate size assessment following treatments. A) Image of colorimetrically expressed bioluminescence intensity superimposed over the mouse image. B) Prostates were excised from non-injected control, injected non-irradiated and injected irradiated (2 Gy×5 days) mice with or without treatments (P62 inducer or cinaciguat, 1 mg/kg/day for 2 weeks by ALZET pumps starting 1 week post irradiation). C) Timeline of tumor growth based on preliminary data.
Development of orthotopic TRAMP-C1 tumors in C57BI/6 mice and the effect of fractionated irradiation. […] At the conclusion of the treatment, tumor weights were evaluated. Without any intervention (drug or irradiation), there was a significant increase in tumor mass evaluated as total prostate tissue weight (FIG. 6 (B)).

Nc1nc2c(nc(Br)n2[C@@H]2O[C@@H]3COP(=O)(O)O[C@H]3[C@H]2O)c(=O)[nH]1 [8-bromo-cGMP]
survival (% of bioluminescence before irradiation) [1]: 65±7%
effect on irradiation-induced cell death [1]: did not enhance irradiation-induced cell death

NCCN(CCN)/[N+]([O-])=N/O [DETA-NoNoate]
survival (% of bioluminescence before irradiation) [1]: 62±13%
effect on irradiation-induced cell death ([1]; listed as DETA NoNoate): not
effect on irradiation-induced cell death ([1]; listed as DETA-NONOate): did not enhance irradiation-induced cell death

O=C(O)CCCCN(CCc1ccccc1OCc1ccc(CCc2ccccc2)cc1)Cc1ccc(C(=O)O)cc1 [cinaciguat, 4-({(4-carboxybutyl)[2-(2-{[4-(2-phenylethyl)phenyl]methoxy}phenyl)ethyl]amino}methyl) benzoic acid]
sGCα1, Bcl-2/BAX and NF-κβ immunolabeling in tumor [2]: all three markers were reduced
bladder wall structure (collagen staining) ([3]; chronically irradiated mice, Verhoeff Van Gieson staining): bladder wall structure similar to non-irradiated controls
CMG profile ([3]; daily gavage 10 mg/kg/day starting 7 weeks post irradiation (10 Gy), 2 weeks): normalized the CMG profile
collagen content of bladder wall ([3]; doubling of collagen 9 weeks post irradiation): reversed
survival (% of bioluminescence before irradiation) [1]: 31±13%
effect on irradiation-induced cell death [1]: potentiated
effect on irradiation-induced cell death ([1]; listed as Cinaciguat): most effective in promoting irradiation-induced tumor cell death
blood pressure effect (hypotension) [4]: induced hypotension
effect on blood pressure ([5]; infused post irradiation 0.1-1 mg/kg/day for 28 days via osmotic pumps, preliminary data): without adversely affecting blood pressure
effects on blood pressure and heart rate ([5]; once-a-day oral 10 mg/kg): only transient effects on blood pressure and heart rate
Bcl-2/BAX ratio [6]: decreasing the Bcl-2/BAX ratio
intercontractile interval (ICI) [7]: increased ICI
non-voiding contractions [7]: eliminated non-voiding contractions
tumor mass evaluated as total prostate tissue weight [8]: marked decrease compared to irradiation alone

CNC(=O)c1ccc(N2C(=S)N(c3ccc(C#N)c(C(F)(F)F)c3)C(=O)C2(C)C)cc1F [enzalutamide]
survival (% of bioluminescence before irradiation) [1]: 80±11%
effect on irradiation-induced cell death [1]: protected the cells and not
